Data set [1] has as its system Hepatitis B virus. Description: Fold resistance, ratio of EC90 for lamivudine-resistant Hepatitis B virus harboring reverse transcriptase M204V mutant to EC90 for wild type Hepatitis B virus. In kind it is functional.
The subject of data set [2] is Hepatitis B virus. Description: Fold resistance, ratio of EC90 for lamivudine-resistant Hepatitis B virus harboring reverse transcriptase L180M/M204V double mutant to EC90 for wild type Hepatitis B virus. In kind it is functional.
Data set [3] concerns Hepatitis B virus. Description: Antiviral activity against lamivudine-resistant Hepatitis B virus harboring reverse transcriptase M204I mutant infected in human HepG2(2.2.15) cells assessed as reduction of infectious virus titer treated daily for 9 days by quantitative Southern blot hybridization assay. It is filed as functional. The settings on record: HepG2 2.2.15, 216 h.

The subject of data set [4] is Hepatitis B virus. As to the kind of experiment: Antiviral activity against lamivudine-resistant Hepatitis B virus harboring reverse transcriptase L180M/M204V double mutant infected in human HepG2(2.2.15) cells assessed as reduction of infectious virus titer treated daily for 9 days by quantitative Southern blot hybridization assay. The conditions noted are these: HepG2 2.2.15, 216 h. It is filed as functional.

For data set [5], the system named is Hepatitis B virus. As to the kind of experiment: Ratio of Lamivudine EC90 to compound EC90 for Lamivudine-resistant Hepatitis B virus harboring reverse transcriptase L180M mutant. In kind it is functional.
For data set [6], the system named is Hepatitis B virus. Description: Antiviral activity against lamivudine-resistant Hepatitis B virus harboring reverse transcriptase M204V mutant infected in human HepG2(2.2.15) cells assessed as inhibition of virus replication treated daily for 9 days by quantitative blot hybridization method. It is filed as functional, organism-based. The settings on record: HepG2 2.2.15, 216 h.

In data set [7] the test system is Hepatitis B virus. As to the kind of experiment: Ratio of adefovir EC90 to compound EC90 for wild type Hepatitis B virus. It is filed as functional.
Data set [8] concerns Hepatitis B virus. Description: Antiviral activity against lamivudine-resistant Hepatitis B virus harboring reverse transcriptase M204I mutant infected in human HepG2(2.2.15) cells assessed as inhibition of virus replication treated daily for 9 days by quantitative blot hybridization method. It is filed as functional, organism-based. The settings on record: HepG2 2.2.15, 216 h.

The subject of data set [9] is Hepatitis B virus. As to the kind of experiment: Antiviral activity against lamivudine-resistant Hepatitis B virus harboring reverse transcriptase L180M mutant infected in human HepG2(2.2.15) cells assessed as reduction of infectious virus titer treated daily for 9 days by quantitative Southern blot hybridization assay. The settings on record: HepG2 2.2.15, 216 h. In kind it is functional.

The test system of data set [10] is Hepatitis B virus. As to the kind of experiment: Antiviral activity against lamivudine-resistant Hepatitis B virus harboring reverse transcriptase M204V mutant infected in human HepG2(2.2.15) cells assessed as reduction of infectious virus titer treated daily for 9 days by quantitative Southern blot hybridization assay. In kind it is functional. The conditions noted are these: HepG2 2.2.15, 216 h.

For data set [11], the system named is Hepatitis B virus. As to the kind of experiment: Antiviral activity against lamivudine-resistant Hepatitis B virus harboring reverse transcriptase L180M/M204V double mutant infected in human HepG2(2.2.15) cells assessed as inhibition of virus replication treated daily for 9 days by quantitative blot hybridization method. It is filed as functional, organism-based. The conditions noted are these: HepG2 2.2.15, 216 h.

A short description of data set [12]: Stability of the compound assessed as resistance to calf thymus adenosine deaminase. In kind it is ADME. The settings on record: cattle.
The test system of data set [13] is Hepatitis B virus. Description: Ratio of adefovir EC50 to compound EC50 for adefovir-resistant Hepatitis B virus harboring reverse transcriptase N236T mutant. In kind it is functional.
In data set [14] the test system is Hepatitis B virus. As to the kind of experiment: Antiviral activity against lamivudine-resistant Hepatitis B virus harboring reverse transcriptase L180M mutant infected in human HepG2(2.2.15) cells assessed as inhibition of virus replication treated daily for 9 days by quantitative blot hybridization method. It is filed as functional, organism-based. The conditions noted are these: HepG2 2.2.15, 216 h.

Data set [15] deals with Hepatitis B virus. As to the kind of experiment: Antiviral activity against adefovir-resistant Hepatitis B virus harboring reverse transcriptase N236T mutant infected in human HepG2(2.2.15) cells assessed as reduction of infectious virus titer treated daily for 9 days by quantitative Southern blot hybridization assay. The conditions noted are these: HepG2 2.2.15, 216 h. In kind it is functional.

Data set [16] deals with Hepatitis B virus. As to the kind of experiment: Antiviral activity against wild type Hepatitis B virus infected in human HepG2(2.2.15) cells assessed as reduction of infectious virus titer treated daily for 9 days by quantitative Southern blot hybridization assay. The conditions noted are these: HepG2 2.2.15, 216 h. In kind it is functional.
Data set [17] has as its system Hepatitis B virus. As to the kind of experiment: Fold resistance, ratio of EC90 for lamivudine-resistant Hepatitis B virus harboring reverse transcriptase L180M mutant to EC90 for wild type Hepatitis B virus. It is filed as functional.
Data set [18] deals with Hepatitis B virus. Description: Ratio of adefovir EC90 to compound EC90 for adefovir-resistant Hepatitis B virus harboring reverse transcriptase N236T mutant. It is filed as functional.
Data set [19] concerns Hepatitis B virus. As to the kind of experiment: Fold resistance, ratio of EC90 for lamivudine-resistant Hepatitis B virus harboring reverse transcriptase M204I mutant to EC90 for wild type Hepatitis B virus. In kind it is functional.
Data set [20] concerns Hepatitis B virus. As to the kind of experiment: Fold resistance, ratio of EC90 for adefovir-resistant Hepatitis B virus harboring reverse transcriptase N236T mutant to EC90 for wild type Hepatitis B virus. In kind it is functional.
Data set [21] concerns Hepatitis B virus. Description: Antiviral activity against lamivudine/entecavir-resistant Hepatitis B virus harboring reverse transcriptase L180M/M204V/S202G infected in human HepG2(2.2.15) cells assessed as inhibition of virus replication treated daily for 9 days by quantitative blot hybridization method. In kind it is functional, organism-based. The settings on record: HepG2 2.2.15, 216 h.

The nature of data set [22]: Cytotoxicity against human HepG2(2.2.15) cells after 24 hrs by neutral red dye uptake assay. It is filed as cell-based.
For data set [23], the system named is Hepatitis B virus. As to the kind of experiment: Antiviral activity against adefovir-resistant Hepatitis B virus harboring reverse transcriptase N236T mutant infected in human HepG2(2.2.15) cells assessed as inhibition of virus replication treated daily for 9 days by quantitative blot hybridization method. In kind it is functional, organism-based. The settings on record: HepG2 2.2.15, 216 h.

Data set [24] concerns Hepatitis B virus. As to the kind of experiment: Antiviral activity against wild type Hepatitis B virus infected in human HepG2(2.2.15) cells assessed as inhibition of virus replication treated daily for 9 days by quantitative blot hybridization method. It is filed as functional, organism-based. The conditions noted are these: HepG2 2.2.15, 216 h.

Regarding `C=C1[C@@H](n2cnc3c(N)ncnc32)[C@@H](F)[C@H](O)[C@H]1CO`, the Ratio in [1] was 1; in [2], 1.2; in data set [5] it was 4.3; in data set [7], 1.5; in data set [17], 1.1; in data set [18], 7.8. Further, the Ratio in data set [19] is recorded as 1.1; in data set [20] it was 1. In addition, the EC90 is 5 µM in data set [3]; 5.5 µM in data set [4]; 5.1 µM in [9]; 4.7 µM in [10]; 4.6 µM in data set [15]; 4.5 µM in [16]. Besides, the EC50 in data set [6] is 1.8 µM; in [8], 1 µM; in data set [11], 2.2 µM; in [14] it was 2.1 µM; in data set [21], 0.67 µM; in data set [23], 1.7 µM. Further, the EC50 in data set [24] was determined as 1.5 µM. Further, the Stability result in data set [12] is on record as “Stable”. Also, the “Ratio EC50” value in [13] is 4.5. For the same molecule, the CC50 at 24 h in data set [22] is over 100 µM.
Take `Nc1ncnc2c1ncn2CCOCP(=O)(O)O` [ADEFOVIR]: the Ratio is reported as 1 in [1]; 1.2 in data set [2]; 1.1 in [17]; 1.1 in [19]; 5.1 in data set [20]. The EC90 in data set [3] was found to be 8 µM; in [4], 8.5 µM; in [9], 7.7 µM; in data set [10], 7 µM; in data set [15], 36 µM; in [16] it was 7.1 µM. The EC50 is 1.6 µM in data set [6]; 1.9 µM in data set [8]; 2.1 µM in [11]; 5.5 µM in data set [14]; 7.8 µM in data set [23]; 1.3 µM in data set [24].
Take `C=C1[C@H](CO)[C@@H](O)C[C@@H]1n1cnc2c(=O)[nH]c(N)nc21` [ENTECAVIR]: the EC90 in data set [16] worked out at 0.033 µM. The EC50 worked out at 1.2 µM in [21] and 0.008 µM in [24]. This molecule showed a half-maximal cytotoxic concentration (CC50) at 24 h in data set [22] of 28 µM.
On to `Nc1ccn([C@@H]2CS[C@H](CO)O2)c(=O)n1` [LAMIVUDINE], for which the Ratio in data set [1] is on record as over 166; in data set [2], over 166; in data set [17] it was 36.7; in data set [19], over 166; in data set [20], 1.5. Besides, the EC90 in [3] was over 100 µM; in data set [4], over 100 µM; in [9] it was 22 µM; in data set [10], over 100 µM; in data set [15] it was 0.9 µM; in data set [16], 0.6 µM. For the same molecule, the EC50 is over 100 µM in [6]; over 100 µM in [8]; over 100 µM in data set [11]; 1.5 µM in data set [14]; over 500 µM in data set [21].

As usually defined, the EC90 is the point of the concentration-response curve where the effect stands at 90%. By EC50 is commonly meant the concentration giving half of the maximal effect. As a reminder, the CC50 is the concentration giving 50% cytotoxicity. High values mean better tolerance by the cells, low ones harm at low concentration.
